Tests used:
P. aeruginosa biofilms = assay: Visual MB staining of biofilms on orthopedic coupons, confirmed by SEM; type: cell-based, Pseudomonas aeruginosa; settings: P. aeruginosa biofilms on titanium, cobalt chromium, polyethylene, PEEK coupons; dilute MB
Procedure: (§1) Staphylococcus aureus (ATCC 6538) and Pseudomonas aeruginosa (ATCC 27853) biofilms were grown for the respective experiments (2 days) in a CBR 90 CDC biofilm reactor (BioSurface Technologies Corporation, Bozeman, Mont.) on either titanium, cobalt chromium, polyether ether ketone (PEEK), and polyethylene (PE) coupons using previously established methods. Briefly, a 0.5 McFarland standard (˜7.5×10^7 colony forming units (CFU)) was made from a 24 hour tryptic soy agar plate culture; 1 mL was then used to inoculate 500 mL of 100% Brain Heart Infusion (BHI) broth in the biofilm reactor. The reactor and its contents were incubated at 34° C. on a hot plate with baffle rotation for 24 hours. After 24 hours, the reactor was flushed continuously with 10% BHI at 6.94 mL/min for the subsequent 24 hours. Prior to subsequent work, the biofilm coupons were removed aseptically and rinsed in PBS. Quantification of biofilm bioburden was performed on representative coupons from each reactor by dispersing the respective biofilm into 2 mL of fresh 1× phosphate buffered saline (PBS) following an established protocol: sequentially vortexing for 1 minute, sonicating for 10 minutes and vortexing […]. The CFUs were calculated by 10-fold serial dilution plating and colony counting. […]

S. aureus biofilms = assay: as above; type: cell-based, Staphylococcus aureus; settings: S. aureus biofilms on titanium, cobalt chromium, polyethylene, PEEK coupons; dilute MB
Procedure: as §1

[1] = system: Staphylococcus aureus (ATCC 6538) biofilms; assay: Transmission light photometry of MB bound to stained biofilms; type: cell-based; settings: S. aureus biofilm, 0.01% MB, 5 min stain, n=6
Procedure: as §1, with “After 24 hours, the reactor was flushed continuously with 10% BHI at 6.94 mL/min for the subsequent 24 hours. Prior to subsequent work, the biofilm coupons were removed aseptically and rinsed in PBS.” left out
(§2) Transmission photometry was used to determine the amount of MB bound to biofilms grown and stained using the above protocols. […] The exposure was fixed for all images analyzed; ambient light sources were eliminated by darkening the room. […]

[2] = system: Pseudomonas aeruginosa (ATCC 27853) biofilms; assay: as above; type: cell-based; settings: P. aeruginosa biofilm, 0.01% MB, 5 min stain, n=6
Procedure: as §1, with “After 24 hours, the reactor was flushed continuously with 10% BHI at 6.94 mL/min for the subsequent 24 hours. Prior to subsequent work, the biofilm coupons were removed aseptically and rinsed in PBS.” left out
as §2

In the case of `CN(C)c1ccc2nc3ccc(=[N+](C)C)cc-3sc2c1` [MB, methylene blue], the “visual staining of biofilm” value (P. aeruginosa biofilms) is reported as “visually turned blue”, the “visual staining of biofilm” value (S. aureus biofilms) is reported as “visually turned blue” and the “number of MB molecules per CFU” value [1] is reported as 6.95×10^6 molecules/CFU. The “number of MB molecules per CFU” value [2] was 2.84×10^7 molecules/CFU.

— patent publication US20210386505A1, “BACTERIAL BIOFILM STAINING DEVICE AND METHODS OF USE” (University of Utah Research Foundation, priority 2020, published 2021)
